Experimental data: US20160346255A1, “METHODS, AGENTS AND COMPOSITIONS FOR TREATMENT OF INFLAMMATORY CONDITIONS” (Betanien Hospital, priority 2014, published 2016)

Legend:
Assay type in all cases: in vivo, human
[1] = test system: Patient with Psoriatic Arthritis; assay: Psoriatic arthritis patient treated with oral ASP1707; details: 3 mg daily for 12 weeks; response at 4 months
Method: • person with psoriatic arthritis • Fulfills CASPAR 2006 classification criteria for psoriatic arthritis.
• Is offered experimental GnRH antagonist therapy, ASP1707 3 mg daily for 12 weeks.

[2] = test system: post-menopausal female with rheumatoid arthritis; assay: Post-menopausal RA patients on methotrexate, oral ASP1707 30 mg twice daily for 12 weeks; details: ASP1707+MTX; Week 12; assuming placebo+MTX 30%
Method: • Patient is offered experimental GnRH antagonist therapy, ASP1707 30 mg twice daily for 12 weeks orally. Primary Assessment is ACR20 response rate at 12 weeks.

[3] = test system: patient with cancer-related inflammation; assay: Cancer-related inflammation, colon cancer patient treated with oral ASP1707; details: 8 mg daily, at 3 months
Excerpt: • person with colon cancer with disease duration of 1 year. Suffers from signs and symptoms of cancer-related inflammation, such as pain, anorexia, and fatigue.

C[C@@H](O)C(=N)NS(=O)(=O)c1cc(C(=O)C(C(=O)c2cc(F)ccc2F)=C2Nc3ccccc3N2)ccc1F [ASP1707, (2R)—N-({5-[3-(2,5-difluorophenyl)-2-(1,3-dihydro-2H-benzoimidazol-2-ylidene)-3-oxopropanoyl]-2-fluorophenyl}sulfonyl)-2-hydroxypropanimidamide] was tested, and the DAS reduction [1] was “over 0.6 units”, the ACR20 response rate [2] was 60% and the “Signs and symptoms of cancer related inflammation (pain, anorexia, fatigue)” value [3] was “reduced”. It also gave a CRP ([3]; baseline 40 mg/L) of 12 mg/L.
